In the SangsterLogP compilation:

Row | Compound | logP
1 | O=C(NCCF)c1ccccc1 | 1.07
2 | O=C(Nc1ccccc1)[C@@H]1C[C@H]1CF | 1.12
3 | O=C(NC1(C(F)F)CCC1)c1ccccc1 | 2.48
4 | C[C@@H]1C[C@H]1NC(=O)c1ccccc1 | 1.83
5 | CNC(=O)c1ccccc1 | 1.03
6 | O=C(NC1CCCC1)c1ccccc1 | 2.23
7 | O=C(Nc1ccccc1)[C@@H]1C[C@H]1C(F)F | 2.28
8 | O=C(Nc1ccccc1)C1CCC1 | 2.26
9 | O=C(NC1(C(F)(F)F)CCC1)c1ccccc1 | 2.51
10 | CC(F)(F)CCNC(=O)c1ccccc1 | 1.81
11 | O=C(Nc1ccccc1)C1CCCCCC1(F)F (configuration not stated) | 2.9
12 | O=C(Nc1ccccc1)C12CC(C(F)(F)F)(CO1)C2 | 2.05
13 | O=C(NC1CCC1)c1ccccc1 | 1.95
14 | O=C(Nc1ccccc1)C1CC1 | 1.92
15 | O=C(NC1CC12CC2)c1ccccc1 (configuration not stated) | 2.08
16 | O=C(Nc1ccccc1)C1CCC(F)(F)C1 (configuration not stated) | 2.5
17 | O=C(Nc1ccccc1)C1CCCCCC1 | 3.24
18 | O=C(Nc1ccccc1)[C@H]1C[C@H](C(F)(F)F)C1 | 3.02
19 | O=C(Nc1ccccc1)C1CCCCC1(F)F (configuration not stated) | 2.5
20 | O=C(N[C@H]1C[C@@H](C(F)(F)F)C1)c1ccccc1 | 2.62
21 | CC(F)(F)CCC(=O)Nc1ccccc1 | 2.12
22 | O=C(Nc1ccccc1)[C@@H]1CC[C@H]1C(F)F | 2.22
23 | O=C(Nc1ccccc1)[C@@H]1C[C@@H]2C[C@@H]2C1 | 2.92

Row | Compound | logP
24 | O=C(N[C@H]1C[C@H](C(F)(F)F)C1)c1ccccc1 | 2.82
25 | C[C@@H]1C[C@@H]1NC(=O)c1ccccc1 | 1.64
26 | O=C(Nc1ccccc1)C1CCC1(F)F (configuration not stated) | 2.03
27 | O=C(NCCCF)c1ccccc1 | 1.28
28 | O=C(Nc1ccccc1)C12CC(C(F)F)(CO1)C2 | 1.93
29 | CCCCC(=O)Nc1ccccc1 | 2.29
30 | O=C(NCCC(F)F)c1ccccc1 | 1.49
31 | O=C(NC1CCCCCC1(F)F)c1ccccc1 (configuration not stated) | 2.56
32 | O=C(N[C@H]1C[C@@H](F)C1)c1ccccc1 | 1.67
33 | O=C(N[C@@H]1C[C@H]1C(F)(F)F)c1ccccc1 | 1.79
34 | O=C(N[C@H]1C[C@H](F)C1)c1ccccc1 | 1.71
35 | O=C(N[C@@H]1C[C@@H]2C[C@@H]2C1)c1ccccc1 | 2.3
36 | O=C(NCCCC(F)(F)F)c1ccccc1 | 2.28
37 | O=C(N[C@@H]1CC[C@@H]1F)c1ccccc1 | 1.57
38 | O=C(Nc1ccccc1)[C@H]1C[C@H]1C(F)F | 2.35
39 | O=C(Nc1ccccc1)C1CC1(F)F (configuration not stated) | 2.07
40 | O=C(Nc1ccccc1)[C@H]1C[C@@H](F)C1 | 1.86
41 | O=C(Nc1ccccc1)[C@@H]1CC[C@H]1C(F)(F)F | 2.88
42 | O=C(Nc1ccccc1)C1CCCC(F)(F)CC1 (configuration not stated) | 2.95
43 | O=C(NCC(F)F)c1ccccc1 | 1.37
44 | O=C(Nc1ccccc1)C1CC12CC2(F)F (configuration not stated) | 2.66
45 | O=C(N[C@H]1C[C@H]1C(F)F)c1ccccc1 | 1.36
46 | O=C(Nc1ccccc1)[C@H]1C[C@H](C(F)F)C1 | 2.39

Row | Compound | logP
47 | O=C(NC1(CF)CCC1)c1ccccc1 | 2.03
48 | O=C(Nc1ccccc1)[C@H]1C[C@H](CF)C1 | 2.14
49 | O=C(Nc1ccccc1)C1CC12CC2 (configuration not stated) | 2.35
50 | O=C(Nc1ccccc1)C1(CF)CCC1 | 1.88
51 | O=C(c1ccccc1)N1CCC1CF (configuration not stated) | 1.4
52 | O=C(Nc1ccccc1)C1CCCCC(F)(F)C1 (configuration not stated) | 3.03
53 | O=C(N[C@@H]1CC[C@H]1C(F)(F)F)c1ccccc1 | 2.54
54 | CCC(F)(F)CC(=O)Nc1ccccc1 | 2.26
55 | O=C(Nc1ccccc1)[C@@H]1C[C@@H]2[C@H](C1)C2(F)F | 2.88
56 | CCNC(=O)c1ccccc1 | 1.31
57 | O=C(NC1CC2(CCC2)C1)c1ccccc1 | 3.26
58 | O=C(N[C@@H]1CC[C@H]1CF)c1ccccc1 | 1.85
59 | O=C(Nc1ccccc1)C1CCC(F)(F)CC1 | 2.63
60 | O=C(N[C@@H]1C[C@H]1CF)c1ccccc1 | 1.41
61 | O=C(Nc1ccccc1)[C@H]1C[C@@H](C(F)F)C1 | 2.23
62 | O=C(N[C@@H]1CC[C@H]1C(F)F)c1ccccc1 | 1.94
63 | O=C(Nc1ccccc1)[C@H]1C[C@@H](CF)C1 | 1.96
64 | O=C(N[C@@H]1C[C@@H]1CF)c1ccccc1 | 1.12
65 | O=C(NCCCC(F)F)c1ccccc1 | 1.76
66 | O=C(Nc1ccccc1)[C@@H]1CC[C@H]1F | 2.04
67 | O=C(Nc1ccccc1)C1CC2(CC(F)C2)C1 (configuration not stated) | 2.69
68 | O=C(Nc1ccccc1)C12CC(CO1)C2 | 1.54
69 | CCC(F)(F)CNC(=O)c1ccccc1 | 2.04

Row | Compound | logP
70 | O=C(CCCC(F)F)Nc1ccccc1 | 2.06
71 | O=C(Nc1ccccc1)C1(C(F)F)CCC1 | 2.19
72 | O=C(NCC(F)(F)F)c1ccccc1 | 1.76
73 | O=C(Nc1ccccc1)[C@@H]1CC[C@@H]1F | 1.74
74 | O=C(Nc1ccccc1)[C@@H]1CC[C@H]1CF | 2.11
75 | CCCCNC(=O)c1ccccc1 | 2.23
76 | O=C(N[C@H]1C[C@@H]2C[C@@H]2C1)c1ccccc1 | 2.19
77 | O=C(NC1CC1)c1ccccc1 | 1.29
78 | O=C(Nc1ccccc1)[C@@H]1C[C@H]1C(F)(F)F | 2.98
79 | C[C@@H]1C[C@@H]1C(=O)Nc1ccccc1 | 2.31
80 | O=C(Nc1ccccc1)[C@H]1C[C@@H](C(F)(F)F)C1 | 2.72
81 | O=C(NC1CCCCCC1)c1ccccc1 | 3.03
82 | O=C(NCCCCF)c1ccccc1 | 1.56
83 | O=C(Nc1ccccc1)[C@H]1C[C@@H]2[C@H](C1)C2(F)F | 2.37
84 | O=C(Nc1ccccc1)C1CC2(CCC2)C1 | 3.27
85 | O=C(N[C@@H]1CC[C@H]1F)c1ccccc1 | 1.64
86 | O=C(c1ccccc1)N1CC(CF)C1 | 0.93
87 | O=C(N[C@H]1C[C@@H](CF)C1)c1ccccc1 | 1.77
88 | O=C(NCCC(F)(F)F)c1ccccc1 | 1.93
89 | O=C(Nc1ccccc1)C1C(F)(F)C12CC2 (configuration not stated) | 2.42
90 | O=C(Nc1ccccc1)[C@H]1C[C@H]1C(F)(F)F | 2.12

Second part, the molecule after the results:

Row | logP | Compound
91 | 2.39 | O=C(NC1CC2(CC(F)C2)C1)c1ccccc1 (configuration not stated)
92 | 2.36 | O=C(c1ccccc1)N1CC2CCCC(C2)C1
93 | 2.67 | O=C(c1ccccc1)N1CC2CCCC1(C(F)(F)F)C2 (configuration not stated)
94 | 2.51 | O=C(c1ccccc1)N1CC2CCC1(C(F)(F)F)CC2
95 | 1.51 | O=C(c1ccccc1)N1CCC1C(F)F (configuration not stated)
96 | 1.93 | O=C(c1ccccc1)N1CC2CC1(C(F)(F)F)C2
97 | 1.66 | O=C(c1ccccc1)N1CC(C(F)(F)F)C1
98 | 1.39 | O=C(c1ccccc1)N1CCCCC1
99 | 2.12 | O=C(c1ccccc1)N1CCCC1C(F)(F)F (configuration not stated)
100 | 1.26 | O=C(c1ccccc1)N1CCCC(F)C1 (configuration not stated)
101 | 2.93 | O=C(Nc1ccccc1)C1CC2(C1)CC(F)(F)C2
102 | 2.26 | O=C(Nc1ccccc1)C1CC(F)(F)C1
103 | 2.23 | O=C(N[C@@H]1C[C@@H]2[C@H](C1)C2(F)F)c1ccccc1
104 | 1.65 | O=C(c1ccccc1)N1CC2CCC1C2 (configuration not stated)
105 | 2.32 | O=C(NC1CCC(F)(F)CC1)c1ccccc1
106 | 2.53 | O=C(NC1CC2(C1)CC(F)(F)C2)c1ccccc1
107 | 1.65 | O=C(c1ccccc1)N1CCCC(F)(F)C1
108 | 1.75 | O=C(c1ccccc1)N1CCC1C(F)(F)F (configuration not stated)
109 | 2.21 | O=C(c1ccccc1)N1CCCC(C(F)(F)F)C1 (configuration not stated)
110 | 1.88 | O=C(c1ccccc1)N1CC2CCCC1C2 (configuration not stated)
111 | 2 | O=C(c1ccccc1)N1CCCCC1CF (configuration not stated)

Row | logP | Compound
112 | 1.84 | O=C(c1ccccc1)N1CC2CC(F)(F)CC(C1)C2(F)F
113 | 1.94 | O=C(NC1CC(F)(F)C1)c1ccccc1
114 | 2.66 | CC12CCC(CC1)CN2C(=O)c1ccccc1
115 | 1.34 | O=C(c1ccccc1)N1CC(F)(F)C1
116 | 1.4 | O=C(c1ccccc1)N1CCC(C(F)F)C1 (configuration not stated)
117 | 1.51 | O=C(NC1CC1(F)F)c1ccccc1 (configuration not stated)
118 | 0.84 | O=C(c1ccccc1)N1CC2COCC(C2)C1
119 | 1.15 | O=C(c1ccccc1)N1CC[C@@H](F)[C@@H](F)C1
120 | 1.35 | O=C(c1ccccc1)N1C[C@@H](F)C[C@H](F)C1
121 | 1.7 | O=C(c1ccccc1)N1CCC(C(F)(F)F)C1 (configuration not stated)
122 | 2.04 | O=C(NC1CC12CC2(F)F)c1ccccc1 (configuration not stated)
123 | 1.35 | O=C(c1ccccc1)N1CCC(F)(F)C1
124 | 0.2 | O=C(c1ccccc1)N1CC2CS(=O)(=O)CC(C1)C2(F)F
125 | 1.67 | O=C(c1ccccc1)N1CCC(C(F)F)CC1
126 | 2.54 | O=C(c1ccccc1)N1CCCCC1C(F)(F)F (configuration not stated)
127 | 2.01 | O=C(c1ccccc1)N1CC2CCC1CC2
128 | 1.59 | O=C(c1ccccc1)N1CC2CC(C1)CC(F)(F)C2
129 | 2.31 | O=C(c1ccccc1)N1CC2CCC(C2)C1
130 | 1.7 | O=C(NC1CCC1(F)F)c1ccccc1 (configuration not stated)
131 | 2.14 | O=C(NC1C(F)(F)C12CC2)c1ccccc1 (configuration not stated)
132 | 2.2 | O=C(c1ccccc1)N1CCC(C(F)(F)F)CC1

Row | logP | Compound
133 | 1.4 | O=C(c1ccccc1)N1CC(C(F)F)C1
134 | 1.01 | O=C(c1ccccc1)N1C[C@@H](F)[C@@H](F)C1
135 | 2.02 | O=C(NC1CCC(F)(F)C1)c1ccccc1 (configuration not stated)
136 | 2.5 | O=C(NC1CCCC(F)(F)CC1)c1ccccc1 (configuration not stated)
137 | 2.04 | O=C(c1ccccc1)N1CCCCC1C(F)F (configuration not stated)
138 | -0.34 | O=C(c1ccccc1)N1CC2CC(C1)CS(=O)(=O)C2
139 | 2.57 | O=C(NC1CCCCC(F)(F)C1)c1ccccc1 (configuration not stated)
140 | 1.19 | O=C(c1ccccc1)N1CCCC1
141 | 1.75 | CC12CC(CN1C(=O)c1ccccc1)C2
142 | 2.47 | O=C(N[C@H]1C[C@@H]2[C@H](C1)C2(F)F)c1ccccc1
143 | 0.58 | O=C(c1ccccc1)N1C[C@H](F)C[C@H](F)C1
144 | 2.09 | O=C(c1ccccc1)N1CC2CCC(C1)C2(F)F
145 | 1.87 | O=C(NC1CCCC1(F)F)c1ccccc1 (configuration not stated)
146 | 1.52 | O=C(c1ccccc1)N1CCCC(CF)C1 (configuration not stated)
147 | 2.41 | CC12CCCC(CN1C(=O)c1ccccc1)C2 (configuration not stated)
148 | 2.31 | O=C(NC1CCCC(F)(F)C1)c1ccccc1 (configuration not stated)
149 | 1.47 | O=C(c1ccccc1)N1CC2CC1C2
150 | 1.45 | O=C(c1ccccc1)N1CCC(CF)CC1
151 | 1.88 | O=C(c1ccccc1)N1CCCC1C(F)F (configuration not stated)
152 | 1.75 | O=C(c1ccccc1)N1CCCC1CF (configuration not stated)
